Measured values published in patent publication US5763406A, “Method for the treatment of conditions caused by herpes virus infections” (Carlbiotech, Ltd. A/S, priority 1991, dated 1998).

Assays:
[1] = Systemic or local effects reported by treated patients; type: in vivo, human
[2] = tested on: HSV-1 infection; experiment: Patients' earlier aciclovir treatment of HSV-1 outbreaks (case history); type: in vivo, human
Experimental: The patient had experienced similar lesions during the past 18 years, primarily during the winter months. They would usually experience 3-5 outbreaks each winter lasting 10-14 days before complete resolution. One year ago, they applied aciclovir topical to the lesions and on that occasion, resolution occured in 6-8 days.
When the lesions are treated with a 5% aciclovir ointment, topically, resolution is normally achieved within 6-7 days. […] On this occasion, […] denied any recent use of any topical or systemic therapy.
The patient had experienced outbreaks from HSV-1 […]. Five years ago the patient started to use aciclovir topically on a regular basis, but switched to take aciclovir orally 11/2 years ago. Normally the outbreaks would be on the lips, but occasionally the outbreaks would also appear on the neck and on the buccal mucosa. Without any form of medication, complete resolution would happen within 2-3 weeks and complete resolution by using aciclovir orally would happen within 1-2 weeks.

C[C@@H](N)C(=O)N[C@@H](CO)C(=O)N[C@H](C(=O)N[C@H](C(=O)N[C@H](C(=O)N[C@@H](CC(N)=O)C(=O)N[C@@H](Cc1ccc(O)cc1)C(=O)N[C@H](C(N)=O)[C@@H](C)O)[C@@H](C)O)[C@@H](C)O)[C@@H](C)O [(D-Ala^1)-Peptide-T Amide, D-Ala-Ser-Thr-Thr-Thr-Asn-Tyr-Thr-NH2]
systemic or local effects ([1]; Example 1, 10 mg/ml topical three times daily): did not report any systemic or local effects other than those noted above
systemic or local effects ([1]; Example 4, 10 mg/ml topical four times in 36 hours): did not experience any systemic or local effects other than those noted above
systemic or local effects ([1]; Example 5, 10 mg/ml topical two times daily): did not observe any systemic or local effects other than those noted above

Nc1nc2c(ncn2COCCO)c(=O)[nH]1 [aciclovir]
time to resolution ([2]; Example 1 patient, aciclovir topical one year ago): 6 to 8 days
time to resolution ([2]; Example 2 patient, 5% aciclovir ointment, topically): 6 to 7 days
effect of very early treatment of the lesions ([2]; Example 2 patient, aciclovir): has not been able to stop the vesicles developing into painful ulcers although the ulcers tend to decrease in size
effect from the use of aciclovir ([2]; Example 4 patient): never experienced any effect
time to complete resolution ([2]; Example 5 patient, aciclovir orally): 1-2 weeks
